Results from patent US8030498B2, “Benzoylpyrazole compounds and herbicides containing them” (Ishihara Sangyo Kaisha, Ltd., priority 2005, dated 2011).

Legend:
[1] = tested on: soybean (Glycine max Merr.); assay: Test Example 1: foliar treatment, growth inhibition rate, soybean; format: in vivo; details: 31 g/ha active ingredient, visually observed 17th to 23rd day after application
Outline: (§1)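 Visual scoring of growth inhibition, 0% (untreated) to 100% (complete kill), on days 17–23 following post-emergence spray of formulated compound in water (500 L/ha, 0.1 vol % spreader); plants treated at set leaf stages, e.g. corn 2.0–3.5, wheat 1.7–3.4.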

[2] = tested on: redroot pigweed; assay: Test Example 2: soil application on the day after sowing, growth inhibition rate, redroot pigweed; format: in vivo, Amaranthus retroflexus L.; details: 250 g/ha active ingredient, observed on 19th to 24th day; for inhibition at 250 g/ha: Amaranthus retroflexus
Outline: (§2)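 Seeds were sown in upland field soil in pots, and on the following day compounds formulated as wettable powders or emulsifiable concentrates were diluted in water (500 liter per hectare) and sprayed onto the soil at prescribed active-ingredient doses. Growth was scored visually 19–24 days later, 0 = untreated to 100% = complete kill.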

[3] = tested on: redroot pigweed (Amaranthus retroflexus L.); assay: Test Example 1: foliar treatment, growth inhibition rate, redroot pigweed; format: in vivo; details: 31 g/ha active ingredient, visually observed 17th to 23rd day after application
Outline: as §1

[4] = tested on: soybean; assay: Test Example 2: soil application on the day after sowing, growth inhibition rate, soybean; format: in vivo, Glycine max Merr.; details: 250 g/ha active ingredient, observed on 19th to 24th day; for inhibition at 250 g/ha: Glycine max
Description: (§3) Upland field soil was put into a 1/170,000 hectare pot, and seeds of various plants (barnyardgrass, crabgrass, greenfoxtail, redroot pigweed, prickly sida, velvetleaf, rice, wheat, corn and soybean) were sown. On the day after sowing, wettable powders or emulsifiable concentrates of the compounds of the present invention prepared in accordance with a conventional preparation method, were weighed so that the active ingredients became the prescribed amounts, and diluted with water in an amount corresponding to 500 liter per 1 hectare, followed by soil application with a small sprayer. On the 19th to 24th day after the application, the state of growth of the respective plants was visually observed, and the herbicidal effect was evaluated in accordance with a growth inhibition rate (%) of from 0 (equivalent to the non-treated area) to 100% (complete kill).

[5] = tested on: wheat; assay: Test Example 2: soil application on the day after sowing, growth inhibition rate, wheat; format: in vivo, Triticum spp.; details: 250 g/ha active ingredient, observed on 19th to 24th day; for inhibition at 250 g/ha: Triticum aestivum
Description: as §3

[6] = tested on: velvetleaf (Abutilon theophrasti MEDIC.); assay: Test Example 1: foliar treatment, growth inhibition rate, velvetleaf; format: in vivo; details: 31 g/ha active ingredient, visually observed 17th to 23rd day after application; for pest or weed control at 31 g/ha: Abutilon theophrasti
Outline: (§4)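 Plants grown in upland soil in pots were sprayed on the foliage at set leaf stages (corn 2.0–3.5, greenfoxtail 1.0–3.0, rice 1.0–2.5, wheat 1.7–3.4 leaves) with wettable powder or emulsifiable concentrate formulations diluted in water at 500 L/ha plus 0.1 vol % spreader. Growth inhibition was scored visually 17–23 days later.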

[7] = tested on: corn (Zea mays L.); assay: Test Example 1: foliar treatment, growth inhibition rate, corn; format: in vivo; details: 31 g/ha active ingredient, visually observed 17th to 23rd day after application; for pest or weed control at 31 g/ha: Zea mays
Outline: as §4

[8] = tested on: corn; assay: Test Example 2: soil application on the day after sowing, growth inhibition rate, corn; format: in vivo, Zea mays L.; details: 250 g/ha active ingredient, observed on 19th to 24th day; for inhibition at 250 g/ha: Zea mays
Outline: as §2

[9] = tested on: prickly sida; assay: Test Example 2: soil application on the day after sowing, growth inhibition rate, prickly sida; format: in vivo, Sida spinosa L.; details: 250 g/ha active ingredient, observed on 19th to 24th day; for inhibition at 250 g/ha: Sida spinosa
Description: as §3

[10] = tested on: wheat (Triticum spp.); assay: Test Example 1: foliar treatment, growth inhibition rate, wheat; format: in vivo; details: 31 g/ha active ingredient, visually observed 17th to 23rd day after application; for pest or weed control at 31 g/ha: Triticum
Outline: as §4

[11] = tested on: crabgrass; assay: Test Example 2: soil application on the day after sowing, growth inhibition rate, crabgrass; format: in vivo, Digitaria sanguinalis L.; details: 250 g/ha active ingredient, observed on 19th to 24th day; for inhibition at 250 g/ha: Digitaria sanguinalis
Outline: as §2

[12] = tested on: rice (Oryza sativa L.); assay: Test Example 1: foliar treatment, growth inhibition rate, rice; format: in vivo; details: 31 g/ha active ingredient, visually observed 17th to 23rd day after application; for pest or weed control at 31 g/ha: Oryza sativa
Outline: as §4

[13] = tested on: velvetleaf; assay: Test Example 2: soil application on the day after sowing, growth inhibition rate, velvetleaf; format: in vivo, Abutilon theophrasti MEDIC.; details: 250 g/ha active ingredient, observed on 19th to 24th day; for inhibition at 250 g/ha: Abutilon theophrasti
Outline: as §2

[14] = tested on: greenfoxtail (Setaria viridis L.); assay: Test Example 1: foliar treatment, growth inhibition rate, greenfoxtail; format: in vivo; details: 31 g/ha active ingredient, visually observed 17th to 23rd day after application; for pest or weed control at 31 g/ha: Setaria viridis
Outline: as §4

[15] = tested on: barnyardgrass (Echinochloa crus-galli L.); assay: Test Example 1: foliar treatment, growth inhibition rate, barnyardgrass; format: in vivo; details: 31 g/ha active ingredient, visually observed 17th to 23rd day after application; for pest or weed control at 31 g/ha: Echinochloa crus-galli
Outline: as §4

[16] = tested on: barnyardgrass; assay: Test Example 2: soil application on the day after sowing, growth inhibition rate, barnyardgrass; format: in vivo, Echinochloa crus-galli L.; details: 250 g/ha active ingredient, observed on 19th to 24th day; for inhibition at 250 g/ha: Echinochloa crus-galli
Description: as §3

[17] = tested on: greenfoxtail; assay: Test Example 2: soil application on the day after sowing, growth inhibition rate, greenfoxtail; format: in vivo, Setaria viridis L.; details: 250 g/ha active ingredient, observed on 19th to 24th day; for inhibition at 250 g/ha: Setaria viridis
Description: as §3

[18] = tested on: crabgrass (Digitaria sanguinalis L.); assay: Test Example 1: foliar treatment, growth inhibition rate, crabgrass; format: in vivo; details: 31 g/ha active ingredient, visually observed 17th to 23rd day after application; for pest or weed control at 31 g/ha: Digitaria sanguinalis
Outline: as §1

[19] = tested on: rice; assay: Test Example 2: soil application on the day after sowing, growth inhibition rate, rice; format: in vivo, Oryza sativa L.; details: 250 g/ha active ingredient, observed on 19th to 24th day; for inhibition at 250 g/ha: Oryza sativa
Description: as §3

[20] = tested on: prickly sida (Sida spinosa L.); assay: Test Example 1: foliar treatment, growth inhibition rate, prickly sida; format: in vivo; details: 31 g/ha active ingredient, visually observed 17th to 23rd day after application
Outline: as §1

| Structure (SMILES) | Growth inhibition rate (%) Soybean [1] [%] | Growth inhibition rate (%) redroot pigweed [3] [%] | Growth inhibition rate (%) Prickly sida [20] [%] | Growth inhibition rate (%) redroot pigweed [2] [%] | Growth inhibition rate (%) Soybean [4] [%] | Growth inhibition rate (%) Wheat [5] [%] | Growth inhibition rate (%) Velvetleaf [6] [%] | Growth inhibition rate (%) Corn [7] [%] | Growth inhibition rate (%) Corn [8] [%] | Growth inhibition rate (%) Prickly sida [9] [%] | Growth inhibition rate (%) Wheat [10] [%] | Growth inhibition rate (%) Crabgrass [11] [%] | Growth inhibition rate (%) Rice [12] [%] | Growth inhibition rate (%) Velvetleaf [13] [%] | Growth inhibition rate (%) Greenfoxtail [14] [%] | Growth inhibition rate (%) Barnyardgrass [15] [%] | Growth inhibition rate (%) Barnyardgrass [16] [%] | Growth inhibition rate (%) Greenfoxtail [17] [%] | Growth inhibition rate (%) Crabgrass [18] [%] | Growth inhibition rate (%) Rice [19] [%] | other results |
| --- | --- | --- | --- | --- | --- | --- | --- | --- | --- | --- | --- | --- | --- | --- | --- | --- | --- | --- | --- | --- | --- |
| CCSC(=O)Oc1c(C(=O)c2ccc(S(C)(=O)=O)c(C3=NOCC3)c2C)cnn1C [Compound No. 39, 5-(ethylthio)carbonyloxy-1-methylpyrazol-4-yl 2-methyl-4-(methylsulfonyl)-3-(4,5-dihydroisoxazol-3-yl)phenyl ketone] | 95 | 80 | – | – | – | – | – | – | – | – | – | – | – | – | – | – | – | – | – | – | inhibition at 250 g/ha [2]: 100%; inhibition at 250 g/ha [4]: 0%; inhibition at 250 g/ha [5]: 0%; pest or weed control at 31 g/ha [6]: 90%; pest or weed control at 31 g/ha [7]: 0%; inhibition at 250 g/ha [8]: 10%; inhibition at 250 g/ha [9]: 70%; pest or weed control at 31 g/ha [10]: 40%; inhibition at 250 g/ha [11]: 100%; pest or weed control at 31 g/ha [12]: 95%; inhibition at 250 g/ha [13]: 60%; pest or weed control at 31 g/ha [14]: 95%; pest or weed control at 31 g/ha [15]: 95%; inhibition at 250 g/ha [16]: 70%; inhibition at 250 g/ha [17]: 80%; pest or weed control at 31 g/ha [18]: 90%; inhibition at 250 g/ha [19]: 80% |
| CCSC(=O)Oc1c(C(=O)c2ccc(S(C)(=O)=O)c(OCCOC)c2C)cnn1C [Compound No. 55, 5-(ethylthio)carbonyloxy-1-methylpyrazol-4-yl 3-(2-methoxyethoxy)-2-methyl-4-(methylsulfonyl)phenyl ketone] | 95 | 95 | – | – | – | – | – | – | – | – | – | – | – | – | – | – | – | – | – | – | inhibition at 250 g/ha [2]: 100%; inhibition at 250 g/ha [4]: 0%; inhibition at 250 g/ha [5]: 0%; pest or weed control at 31 g/ha [6]: 100%; pest or weed control at 31 g/ha [7]: 40%; inhibition at 250 g/ha [8]: 0%; inhibition at 250 g/ha [9]: 70%; pest or weed control at 31 g/ha [10]: 10%; inhibition at 250 g/ha [11]: 100%; pest or weed control at 31 g/ha [12]: 60%; inhibition at 250 g/ha [13]: 95%; pest or weed control at 31 g/ha [14]: 100%; pest or weed control at 31 g/ha [15]: 100%; inhibition at 250 g/ha [16]: 100%; inhibition at 250 g/ha [17]: 100%; pest or weed control at 31 g/ha [18]: 100%; inhibition at 250 g/ha [19]: 70% |
| CCn1ncc(C(=O)c2ccc(S(C)(=O)=O)c(C(=O)OC)c2C)c1OC(=O)SC [compound 4] | 95 | – | 80 | 100 | 50 | 0 | 95 | 5 | 0 | 70 | 50 | 100 | 100 | 60 | 100 | 95 | 80 | 70 | 95 | 70 | – |
| COC(=O)c1c(S(C)(=O)=O)ccc(C(=O)c2cnn(C)c2OC(=O)SC)c1Cl [compound 29] | 60 | 70 | 60 | – | 40 | 0 | 65 | 10 | 0 | 60 | 0 | 10 | 40 | 50 | 50 | 80 | 50 | 40 | 50 | 10 | – |
| CCSC(=O)Oc1c(C(=O)c2ccc(S(C)(=O)=O)c(OC(C)C)c2C)cnn1C [compound 37] | 70 | 100 | – | 50 | 0 | 0 | 95 | 0 | 0 | 10 | 0 | 80 | 70 | 30 | 100 | 95 | 60 | 60 | 80 | 10 | – |
| CCSC(=O)Oc1c(C(=O)c2ccc(S(C)(=O)=O)c(COCC(F)(F)F)c2C)cnn1C [compound 69] | 98 | 85 | 70 | 100 | – | 0 | 95 | 50 | 0 | 70 | 0 | 95 | 80 | 70 | 95 | 95 | 70 | 50 | 98 | 70 | – |
| CCSC(=O)Oc1c(C(=O)c2ccc(S(C)(=O)=O)c(OCC3CCCCO3)c2C)cnn1C (stereo not shown) [compound 215] | 95 | 95 | 50 | 60 | – | 0 | 50 | 30 | 0 | 40 | 0 | 95 | 70 | 0 | 70 | 100 | 90 | 70 | 60 | 90 | – |
